22 compounds from US20260285855A1, “HETEROARYL DERIVATIVES AS DDRS INHIBITORS” (CHIESI FARMACEUTICI S.P.A., priority 2023, published 2026) can be followed below.

In one assay the target is T1, DDR1 (Homo sapiens, UniProt Q08345).
T1 construct: purchased Carna Biosciences
The experiment in a line: LanthaScreen Europium Kinase Binding assay, DDR1. As to conditions: 5 nM DDR1, 20 nM Kinase Tracer 178, 1 h at rt; Ki from IC50 by Cheng-Prusoff; read-out: Ki DDR1. How it is done:
(§1) DDR1 and DDR2 binding assays were performed using Life Technologies LanthaScreen™ Europium Kinase Binding assay. […] IC50 values were determined in GraphPad Prism 7.0 software, using 4 parameter model: log (inhibitor) vs. response. IC50 values were converted in Ki using the Cheng-Prusoff equation (Ki-IC50/(1+ [Tracer]/Kd).

The target of a further assay is T2, DDR2 (Homo sapiens, UniProt Q16832).
T2 construct: purchased Life Technologies
T2 sequence (Q16832 22-855): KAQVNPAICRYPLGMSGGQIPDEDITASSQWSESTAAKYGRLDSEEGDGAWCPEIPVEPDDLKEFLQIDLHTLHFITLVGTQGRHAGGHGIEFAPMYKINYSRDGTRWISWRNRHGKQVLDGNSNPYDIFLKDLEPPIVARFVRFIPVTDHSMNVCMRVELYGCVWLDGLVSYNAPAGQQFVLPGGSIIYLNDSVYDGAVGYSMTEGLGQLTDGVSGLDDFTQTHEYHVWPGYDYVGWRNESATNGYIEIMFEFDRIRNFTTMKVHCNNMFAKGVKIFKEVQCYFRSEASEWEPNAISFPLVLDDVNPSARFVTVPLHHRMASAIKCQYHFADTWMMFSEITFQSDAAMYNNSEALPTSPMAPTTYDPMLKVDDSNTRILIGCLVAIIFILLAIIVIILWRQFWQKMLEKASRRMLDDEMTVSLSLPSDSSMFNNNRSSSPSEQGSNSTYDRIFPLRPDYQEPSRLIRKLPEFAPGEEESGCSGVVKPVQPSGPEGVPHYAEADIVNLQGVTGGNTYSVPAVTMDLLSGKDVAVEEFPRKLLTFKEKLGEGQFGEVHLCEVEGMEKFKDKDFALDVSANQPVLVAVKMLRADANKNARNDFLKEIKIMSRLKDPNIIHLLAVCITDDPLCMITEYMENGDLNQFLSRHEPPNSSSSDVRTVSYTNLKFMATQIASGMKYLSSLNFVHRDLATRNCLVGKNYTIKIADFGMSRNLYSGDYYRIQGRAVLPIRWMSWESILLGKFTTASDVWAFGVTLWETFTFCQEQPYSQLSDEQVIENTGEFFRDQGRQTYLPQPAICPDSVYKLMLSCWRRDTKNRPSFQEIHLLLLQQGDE
The experiment in a line: LanthaScreen Europium Kinase Binding assay, DDR2. As to conditions: 5 nM DDR2, 10 nM Kinase Tracer 178, 1 h at rt; Ki from IC50 by Cheng-Prusoff; read-out: Ki DDR2. As for the experimental part:
as §1
Background: TR-FRET usually uses a lanthanide donor and a delayed reading to cut background.

The structures appear in SMILES notation.

T1 sequence (Q08345 19-913): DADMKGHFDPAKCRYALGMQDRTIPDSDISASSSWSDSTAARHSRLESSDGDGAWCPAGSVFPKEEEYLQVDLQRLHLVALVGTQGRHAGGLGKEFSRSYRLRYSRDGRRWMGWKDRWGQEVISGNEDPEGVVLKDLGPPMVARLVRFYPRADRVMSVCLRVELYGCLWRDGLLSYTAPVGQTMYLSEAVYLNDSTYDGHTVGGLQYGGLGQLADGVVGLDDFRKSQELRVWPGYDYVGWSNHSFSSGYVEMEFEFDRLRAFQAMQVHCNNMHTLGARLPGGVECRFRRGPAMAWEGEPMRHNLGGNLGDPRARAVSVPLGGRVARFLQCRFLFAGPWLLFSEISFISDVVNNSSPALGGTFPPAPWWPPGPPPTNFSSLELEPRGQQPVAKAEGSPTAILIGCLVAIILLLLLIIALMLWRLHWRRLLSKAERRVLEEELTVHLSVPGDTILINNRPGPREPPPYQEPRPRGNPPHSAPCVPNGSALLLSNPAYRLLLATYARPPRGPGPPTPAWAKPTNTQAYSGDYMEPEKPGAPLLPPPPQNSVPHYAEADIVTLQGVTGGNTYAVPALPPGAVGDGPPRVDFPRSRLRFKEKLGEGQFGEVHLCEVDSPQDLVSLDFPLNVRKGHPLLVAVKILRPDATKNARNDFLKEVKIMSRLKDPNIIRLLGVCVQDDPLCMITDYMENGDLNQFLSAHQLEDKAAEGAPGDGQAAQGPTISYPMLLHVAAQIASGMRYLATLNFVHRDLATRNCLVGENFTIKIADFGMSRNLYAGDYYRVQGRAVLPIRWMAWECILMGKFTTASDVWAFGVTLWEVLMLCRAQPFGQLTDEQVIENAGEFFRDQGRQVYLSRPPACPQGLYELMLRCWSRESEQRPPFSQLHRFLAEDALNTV

As usually defined, the Ki is a dissociation constant, usually derived from enzyme kinetics or from competition with a known ligand. As for `CN(C(=O)Nc1cncc(OC(F)(F)F)c1)C1CC2(C1)CN(C(=O)c1cnn3ccncc13)C2` [Example 176, 1-methyl-1-(2-(pyrazolo[1,5-a]pyrazine-3-carbonyl)-2-azaspiro[3.3]heptan-6-yl)-3-(5-(trifluoromethoxy)pyridin-3-yl)urea], the Ki at DDR1 is 5 to 25 nM; at DDR2, 25 to 100 nM.

For the compound `CN(C(=O)Nc1cc(OC(F)F)ccn1)C1CC2(C1)CN(C(=O)c1cnn3ccn(C)c13)C2` [Example 177, 3-(4-(difluoromethoxy)pyridin-2-yl)-1-methyl-1-(2-(1-methyl-1H-imidazo[1,2-b]pyrazole-7-carbonyl)-2-azaspiro[3.3]heptan-6-yl)urea], the inhibitory constant (Ki) on DDR1 was < 5 nM; on DDR2, 25 to 100 nM.

Regarding `CN(C(=O)Nc1cc(C(F)(F)F)ncn1)C1CC2(C1)CN(C(=O)c1cnn3ccsc13)C2` [Example 178, 1-methyl-1-(2-(pyrazolo[5,1-b]thiazole-7-carbonyl)-2-azaspiro[3.3]heptan-6-yl)-3-(6-(trifluoromethyl)pyrimidin-4-yl)urea], the values for the inhibitory constant (Ki) at DDR1 and on DDR2 were < 5 nM and 25 to 100 nM, respectively.

For the compound `CN(C(=O)Nc1cncc(OC(F)(F)F)c1)C1CC2(C1)CN(C(=O)c1cnn3ccsc13)C2` [Example 179, 1-methyl-1-(2-(pyrazolo[5,1-b]thiazole-7-carbonyl)-2-azaspiro[3.3]heptan-6-yl)-3-(5-(trifluoromethoxy)pyridin-3-yl)urea], the Ki on DDR1 was < 5 nM; at DDR2 it was 5 to 25 nM.

`Cc1ncc(NC(=O)N(C)C2CC3(C2)CN(C(=O)c2cnn4ccn(C)c24)C3)cc1C(F)(F)F` [Example 180, 1-methyl-1-(2-(1-methyl-1H-imidazo[1,2-b]pyrazole-7-carbonyl)-2-azaspiro[3.3]heptan-6-yl)-3-(6-methyl-5-(trifluoromethyl)pyridin-3-yl)urea]: the Ki on DDR1 was < 5 nM; on DDR2, 5 to 25 nM.

Regarding `Cc1ncc(NC(=O)NC2CC3(C2)CN(C(=O)c2cnn4ccn(C)c24)C3)cc1C(F)(F)F` [Example 181, 1-(2-(1-methyl-1H-imidazo[1,2-b]pyrazole-7-carbonyl)-2-azaspiro[3.3]heptan-6-yl)-3-(6-methyl-5-(trifluoromethyl)pyridin-3-yl)urea], the Ki is < 5 nM on DDR1 and 5 to 25 nM on DDR2.

On to `Cn1cc(-c2ccc3c(C(=O)N4CC5(CC(NC(=O)Nc6cccc(C(F)(F)F)c6)C5)C4)cnn3c2)cn1` [Example 182, 1-(2-(6-(1-methyl-1H-pyrazol-4-yl)pyrazolo[1,5-a]pyridine-3-carbonyl)-2-azaspiro[3.3]heptan-6-yl)-3-(3-(trifluoromethyl)phenyl)urea], for which the inhibitory constant (Ki) at DDR1 and at DDR2 was < 5 nM in each case.

On to `O=C(Nc1cccc(C(F)(F)F)c1)NC1CC2(C1)CN(C(=O)c1cnn3ccc(N4CCS(=O)(=O)CC4)cc13)C2` [Example 183, 1-(2-(5-(1,1-dioxidothiomorpholino)pyrazolo[1,5-a]pyridine-3-carbonyl)-2-azaspiro[3.3]heptan-6-yl)-3-(3-(trifluoromethyl)phenyl)urea], for which the results for the Ki at DDR1 and at DDR2 were < 5 nM and 5 to 25 nM, respectively.

Consider `Nc1ccn2ncc(C(=O)N3CC4(CC(NC(=O)Nc5cccc(C(F)(F)F)c5)C4)C3)c2c1` [Example 184, 1-(2-(5-aminopyrazolo[1,5-a]pyridine-3-carbonyl)-2-azaspiro[3.3]heptan-6-yl)-3-(3-(trifluoromethyl)phenyl)urea], for which the Ki on DDR1 and at DDR2 was < 5 nM in each case.

Take `O=C(Nc1cccc(C(F)(F)F)c1)NC1CC2(C1)CN(C(=O)c1cnn3ccc(N4CCC(O)C4)cc13)C2` (centres unmarked) [Example 185, 1-(2-(5-(3-hydroxypyrrolidin-1-yl)pyrazolo[1,5-a]pyridine-3-carbonyl)-2-azaspiro[3.3]heptan-6-yl)-3-(3-(trifluoromethyl)phenyl)urea]: the inhibition constant (Ki) at DDR1 and at DDR2 was < 5 nM each time.

For the compound `CN1CCN(c2ccn3ncc(C(=O)N4CC5(CC(NC(=O)Nc6cccc(C(F)(F)F)c6)C5)C4)c3c2)C(=O)C1` [Example 186, 1-(2-(5-(4-methyl-2-oxopiperazin-1-yl)pyrazolo[1,5-a]pyridine-3-carbonyl)-2-azaspiro[3.3]heptan-6-yl)-3-(3-(trifluoromethyl)phenyl)urea], the values for the Ki at DDR1 and on DDR2 were < 5 nM and 5 to 25 nM, respectively.

`Cn1ccn2ncc(C(=O)N3CC4(CC(N(C(=O)Nc5cccc(C(F)(F)F)c5)C5CC5)C4)C3)c12` [Example 187, 1-cyclopropyl-1-(2-(1-methyl-1H-imidazo[1,2-b]pyrazole-7-carbonyl)-2-azaspiro[3.3]heptan-6-yl)-3-(3-(trifluoromethyl)phenyl)urea]: the Ki at DDR1 was < 5 nM; at DDR2, 5 to 25 nM.

As for `Cc1ccc(OC(F)(F)F)cc1NC(=O)N(C)C1CC2(C1)CN(C(=O)c1ccnc3[nH]ncc13)C2` [Example 188, 1-(2-(1H-pyrazolo[3,4-b]pyridine-4-carbonyl)-2-azaspiro[3.3]heptan-6-yl)-1-methyl-3-(2-methyl-5-(trifluoromethoxy)phenyl)urea], the Ki is < 5 nM at DDR1 and 5 to 25 nM at DDR2.

`CN(C(=O)Nc1cc(OC(F)(F)F)ccn1)C1CC2(C1)CN(C(=O)c1ccnc3[nH]ncc13)C2` [Example 189, 1-(2-(1H-pyrazolo[3,4-b]pyridine-4-carbonyl)-2-azaspiro[3.3]heptan-6-yl)-1-methyl-3-(4-(trifluoromethoxy)pyridin-2-yl)urea]: the inhibition constant (Ki) at DDR1 and at DDR2 was 5 to 25 nM each time.

For `CN(C(=O)Nc1cc(OC(F)(F)F)ccn1)C1CC2(C1)CN(C(=O)c1cnn3ccncc13)C2` [Example 190, 1-methyl-1-(2-(pyrazolo[1,5-a]pyrazine-3-carbonyl)-2-azaspiro[3.3]heptan-6-yl)-3-(4-(trifluoromethoxy)pyridin-2-yl)urea], the Ki on DDR1 fell in the range of 5 to 25 nM; on DDR2, 25 to 100 nM.

Regarding `CC1(NC(=O)Nc2cccc(C(F)(F)F)c2)CC2(CN(C(=O)c3ncnc4ccsc34)C2)C1` [Example 191], the inhibitory constant (Ki) at DDR1 is < 5 nM; on DDR2, 5 to 25 nM.

For `Cn1cc(N2CCOCC2)n2ncc(C(=O)N3CC4(CC(NC(=O)Nc5cccc(C(F)(F)F)c5)C4)C3)c12` [Example 192, 1-(2-(1-methyl-3-morpholino-1H-imidazo[1,2-b]pyrazole-7-carbonyl)-2-azaspiro[3.3]heptan-6-yl)-3-(3-(trifluoromethyl)phenyl)urea], the Ki at DDR1 and on DDR2 was 25 to 100 nM in each case.

On to `Cc1cc(C(F)(F)F)cc(NC(=O)N(C)C2CC3(C2)CN(C(=O)c2cnn4ccn(C)c24)C3)c1F` [Example 193, 3-(2-fluoro-3-methyl-5-(trifluoromethyl)phenyl)-1-methyl-1-(2-(1-methyl-1H-imidazo[1,2-b]pyrazole-7-carbonyl)-2-azaspiro[3.3]heptan-6-yl)urea], for which the Ki was < 5 nM at DDR1 and 5 to 25 nM at DDR2.

With `CSCCn1ccn2ncc(C(=O)N3CC4(CC(NC(=O)Nc5cccc(C(F)(F)F)c5)C4)C3)c12` [Example 194, 1-(2-(1-(2-(methylthio)ethyl)-1H-imidazo[1,2-b]pyrazole-7-carbonyl)-2-azaspiro[3.3]heptan-6-yl)-3-(3-(trifluoromethyl)phenyl)urea], the results for the Ki at DDR1 and at DDR2 were < 5 nM and 5 to 25 nM, respectively.

For the compound `CN(C(=O)Nc1cccc(C(F)(F)F)c1)C1CC2(C1)CN(C(=O)c1cnn3ccn(CCF)c13)C2` [Example 195, 1-(2-(1-(2-fluoroethyl)-1H-imidazo[1,2-b]pyrazole-7-carbonyl)-2-azaspiro[3.3]heptan-6-yl)-1-methyl-3-(3-(trifluoromethyl)phenyl)urea], the Ki on DDR1 is < 5 nM; at DDR2, 5 to 25 nM.

Regarding `CSCn1ccn2ncc(C(=O)N3CC4(CC(NC(=O)Nc5cccc(C(F)(F)F)c5)C4)C3)c12` [Example 196, 1-(2-(1-((methylthio)methyl)-1H-imidazo[1,2-b]pyrazole-7-carbonyl)-2-azaspiro[3.3]heptan-6-yl)-3-(3-(trifluoromethyl)phenyl)urea], the Ki on DDR1 is < 5 nM; at DDR2, 5 to 25 nM.

As for `CN(C(=O)Nc1cncc(Br)c1)C1CC2(C1)CN(C(=O)c1cnn3ccn(C)c13)C2` [Example 197, 3-(5-bromopyridin-3-yl)-1-methyl-1-(2-(1-methyl-1H-imidazo[1,2-b]pyrazole-7-carbonyl)-2-azaspiro[3.3]heptan-6-yl)urea], the Ki is < 5 nM at DDR1 and 5 to 25 nM at DDR2.
